Results taken from patent US6875757B2, “LPA receptor agonists and antagonists and methods of use” (University of Tennessee Research Foundation, priority 2000, dated 2005).
Like-named read-outs stand apart in the source and are kept apart here. Blank lines part the entries; values can stand above or below the compound they belong to.

Key:
PSP24 PLGFR = PSP24 PLGFR (Xenopus laevis, UniProt P79945); test: Xenopus oocyte assay: LPA-induced oscillatory chloride currents (two-electrode voltage clamp); type: cell-based; settings: for inhibition of LPA-induced chloride currents: Xenopus oocytes, extracellular application
PSP24 PLGFR, sequence (P79945 whole entry): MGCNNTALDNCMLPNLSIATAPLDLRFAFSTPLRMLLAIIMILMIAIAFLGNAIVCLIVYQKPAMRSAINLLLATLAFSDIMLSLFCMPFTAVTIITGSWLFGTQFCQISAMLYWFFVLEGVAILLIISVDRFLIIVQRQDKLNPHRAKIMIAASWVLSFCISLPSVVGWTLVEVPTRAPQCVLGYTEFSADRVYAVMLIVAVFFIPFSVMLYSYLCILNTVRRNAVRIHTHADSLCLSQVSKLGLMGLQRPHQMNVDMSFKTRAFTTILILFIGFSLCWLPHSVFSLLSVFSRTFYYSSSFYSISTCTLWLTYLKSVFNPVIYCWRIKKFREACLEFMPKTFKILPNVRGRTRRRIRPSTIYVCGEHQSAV
Method: Xenopus oocytes which endogenously express PSP24 PLGFR were used to screen the newly designed and synthesized compounds for their LPA inhibitory activity.
(§1) Oocytes were obtained from xylazine-anesthetized adult Xenopus laevis frogs (Carolina Scientific, Burlington, N.C.) under aseptic conditions and prepared for experiment. […] Oocytes were kept in Barth's solution in an incubator between 17-20° C. and were used for 2-7 days after isolation.
(§2) Electrophysiological recordings were carried out using a standard two-electrode voltage-clamp amplifier holding the membrane potential at −60 mV (GeneClamp 500, Axon Instruments, Calif.). […] Membrane currents were recorded with a NIC-310 digital oscilloscope (Nicolet, Madison, Wis.). Applications were made at intervals of 15 mins (minimum) to allow for the appropriate washout and recovery from desensitization.
as §1
as §2, with “CA).” for “Calif.).”

HEY ovarian cancer cells [1] = test: LPA-induced HEY ovarian cancer cell migration (cell motility); type: cell-based; settings: compound 1 μM against 0.1 μM LPA
Method: It is known that two LPA receptors, EDG-2 and EDG-7, are expressed in HEY ovarian cancer cells, so compounds 56, 56a, and 66 were evaluated for their ablity to inhibit LPA-induced cell motility (compound conc: 1 μM against 0.1 μM LPA conc:).
HEY ovarian cells were maintained in RPMI 1640 medium with 2 mM L-glutamine (GIBCO BRL) supplemented with 10% fetal bovine serum (FBS, Hyclone). All cells were synchronized to the Go/G1 stage by growing them to confluency for 2 days. The cells were replated and harvested for experiments when cells were about 50-60% confluent on the flask. After removal of the cells from the flask, they were exposed for 5 min to 0.53 mM EDTA in PBS at 37° C. EDTA was neutralized with equal volume of RPMI 1640 plus 2 mM L-glutamine and 10% FBS. Cells were centrifuged at 800 rpm for 10 min at room temperature. Harvested cells were washed twice with RPMI 1640 with 2 mM L-glutamine medium and resuspended in the concentration of 1×10^6 cells/ml, and then rested for 1 hr at 37° C.
A modified quantitative cell migration assay (Cat. # ECM500 from Chemicon, Temecula, Calif.) was used to test cell motility. The Chemicon chamber membrane was coated with fibronectin-containing pores of 8 microns in diameter. A 400 μl RPMI/2 mM L-glutamine containing either no inhibitors or inhibitors (1 μM) were pippetted into the lower chamber. About 5×10^4 cells in RPMI 1640/2 mM L-glutamine were added to the top chamber. The 24-well plates with inserts were incubated for 4 hours in a 5% CO2 incubator at 37° C. At the end of incubation, the chambers were removed to a fresh 24-well plate, and the cells on the inside chamber were removed by a swab several times and placed in the prepared Cell Stain Solution for 30 minutes at room temperature. At the end of incubation, Cell Stain Solution was removed from the wells. The chambers were washed 3 times with 1 mL PBS per well. After the final PBS wash, the chambers were examined to confirm proper cell morphology, and adherent cells were counted using an inverted microscope.

[2] = system: DU-145 prostate cancer cell line; test: Cytotoxicity / growth inhibition (SRB), DU145; type: cell-based; settings: read-out: IC50 ± SEM, DU145
Method: (§3) Cells were removed from stock flasks using trypsin, centrifuged, resuspended in fresh media, and plated at a density of approximately 2,000 cells/well in 96-well culture plates. Final drug concentrations ranged from 0.05 to either 10 or 50 μM. Control experiments with no drug added (negative control) and 5-fluorouracil added (positive control) were performed in parallel. Media was removed and replaced at 48 hours to minimize the effects of drug degradation during the course of the experiment. After 96 hours drug exposure, cells were fixed by the addition of cold 50% trichloroacetic acid (TCA) and incubation at 4° C. for 1 hour. Fixed cells were stained with sulforhodamine B (SRB), and cell number was determined by comparison of absorbance at 540 nm, as compared to a standard curve of cell number versus absorbance. Experiments were performed in duplicate.

[3] = system: PC-3 prostate cancer cell line; test: Cytotoxicity / growth inhibition (SRB), PC-3; type: cell-based; settings: 96 hours drug exposure, read-out: IC50 ± SEM, PC-3
Method: as §3

[4] = system: LNCaP prostate cancer cell line; test: Cytotoxicity / growth inhibition (SRB), LNCaP; type: cell-based; settings: 96 hours drug exposure, read-out: IC50 ± SEM, LNCaP
Method: as §3

human Edg-2 = molecular target: T1, human Edg-2 (Homo sapiens, UniProt Q92633); test: Ca2+ responses (Fura-2) in RH7777 cells expressing Edg-2; type: cell-based; settings: 250 nM LPA 18:1 mixed with 10 μM lipid
T1 construct: expressed in transfected cells
T1 sequence (Q92633 whole entry): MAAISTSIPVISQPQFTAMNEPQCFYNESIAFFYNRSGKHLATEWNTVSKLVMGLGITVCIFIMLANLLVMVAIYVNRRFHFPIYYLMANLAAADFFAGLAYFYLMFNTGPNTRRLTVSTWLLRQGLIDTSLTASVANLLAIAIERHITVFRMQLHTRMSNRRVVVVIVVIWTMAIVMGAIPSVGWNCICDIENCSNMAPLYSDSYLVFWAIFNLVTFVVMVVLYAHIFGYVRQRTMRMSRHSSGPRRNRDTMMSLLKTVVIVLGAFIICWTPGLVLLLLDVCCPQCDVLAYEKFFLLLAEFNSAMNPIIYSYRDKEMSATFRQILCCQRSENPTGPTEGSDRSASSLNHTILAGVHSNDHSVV
Method: (§4) RH7777 cells were transfected with the cDNA constructs encoding human Edg-2, Edg-4, or Edg-7 and then were subcloned into the pCDNA3 expression vector using the Cytofectene transfection reagent according to the manufacturers' protocol. Transfected cells were selected in DMEM containing 10% FBS and 1 mg/ml geneticin. Resistant cells were collected and subcloned by limiting dilution. The resulting clones were then screened using functional assays and RT-PCR analysis. Data are representative of three individual clones.

human Edg-7 = molecular target: T2, human Edg-7 (Homo sapiens, UniProt Q9UBY5); test: Ca2+ responses (Fura-2) in RH7777 cells expressing Edg-7; type: cell-based; settings: 250 nM LPA 18:1 mixed with 500 nM lipid
T2 construct: Flag; expressed in transfected cells
T2 sequence (Q9UBY5 1-353): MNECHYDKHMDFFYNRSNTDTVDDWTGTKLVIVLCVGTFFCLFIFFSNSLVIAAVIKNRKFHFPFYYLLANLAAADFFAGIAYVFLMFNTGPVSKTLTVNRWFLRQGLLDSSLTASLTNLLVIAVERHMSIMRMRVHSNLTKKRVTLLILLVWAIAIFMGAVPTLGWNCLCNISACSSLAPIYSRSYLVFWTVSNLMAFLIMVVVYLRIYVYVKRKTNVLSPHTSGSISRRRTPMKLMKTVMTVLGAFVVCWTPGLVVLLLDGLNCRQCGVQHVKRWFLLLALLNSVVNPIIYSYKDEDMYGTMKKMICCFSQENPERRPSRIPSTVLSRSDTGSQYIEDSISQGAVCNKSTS
Method: as §4

HEY ovarian cancer cells [5] = test: Ca2+ responses in HEY ovarian cancer cells; type: cell-based; settings: 100 nM LPA 18:1 mixed with 1 μM lipid
From the text: Likewise, PA 8:0 inhibited the Ca^2+ response to 6% of control, whereas PA 18:1 had no effect. HEY express mRNA transcripts for Edg-1, -2, -5, -7 receptors (FIG. 34C).

NIH3T3 cells = test: LPA-elicited proliferation of NIH3T3 cells (cell counting); type: cell-based; settings: 5 μM LPA 18:1 mixed with 10 μM lipid, 24 hr
Method: Proliferation of NIH3T3 cells was assessed by direct cell counting as previously described (Tigyi et al., 1999). NIH3T3 cells were plated in 24-well plates at a density of 10,000 cells/well, in DMEM containing 10% FBS. The following day, the cells were rinsed and serum starved in DMEM for 6 hr. Lipids were then added for 24 hr. Cell numbers were determined by counting in a Coulter counter (Coulter Electronics, Hialeah, Fla.).

human Edg-4 = molecular target: T3, human Edg-4 (Homo sapiens, UniProt Q9HBW0); test: Ca2+ responses (Fura-2) in RH7777 cells expressing Edg-4 (stable or transient); type: cell-based; settings: stable Edg-4; 500 nM LPA 18:1 mixed with 5 μM lipid
T3 construct: expressed in transfected cells
T3 sequence (Q9HBW0 whole entry): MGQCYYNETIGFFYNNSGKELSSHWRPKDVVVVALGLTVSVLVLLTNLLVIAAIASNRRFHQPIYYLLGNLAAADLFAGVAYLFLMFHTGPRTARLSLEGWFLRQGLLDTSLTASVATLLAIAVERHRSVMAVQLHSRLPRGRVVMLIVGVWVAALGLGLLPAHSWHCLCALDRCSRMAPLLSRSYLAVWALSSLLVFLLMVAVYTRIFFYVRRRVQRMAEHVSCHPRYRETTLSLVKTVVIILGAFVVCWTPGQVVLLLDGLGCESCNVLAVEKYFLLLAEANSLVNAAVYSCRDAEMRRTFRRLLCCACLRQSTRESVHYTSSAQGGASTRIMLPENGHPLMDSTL
From the text: RH7777 cells, stably expressing human Edg-4, were kindly provided by Dr. Kevin Lynch (University of Virginia, Charlottesville, Va.). Flag-tagged cDNA's encoding human Edg-4 and -7 inserted into the pCDNA3 expression plasmid (Invitrogen, Carlsbad, Calif.), were a generous gift from Dr. Junken Aoki (University of Tokyo, Tokyo, Japan). RH7777 and NIH3T3 cells were obtained from the American Type Culture Collection (Manassas, Va.). HEY cells were provided by Dr. Lisa Jennings (University of Tennessee, Memphis). All cell lines were maintained in Dulbecco's Modified Eagle's Medium (DMEM) containing 10% FBS and 2 mM glutamine. Oocytes were obtained from adult Xenopus laevis frogs as previously described (Tigyi et al., 1999).
as §4
RH7777 cells were plated on polylysine-coated glass coverslips (Bellco, Vineland, N.J.) one day prior to transfection. The following day, cells were transfected overnight (16-18 hr) with 1 μg of plasmid DNA mixed with 6 μl of Cytofectene. The cells were then rinsed twice with DMEM and cultured in DMEM containing 10% FBS. The next day, the cells were rinsed with DMEM and serum was withdrawn for a minimum of 2 hr prior to monitoring intracellular Ca^2+.

[6] = Homo sapiens, DU-145, 96 hours drug exposure

Compound: 2-Amino-3-(nonylamino)-3-oxopropyl dihydrogen phosphate [Compound 55]
inhibition of LPA-induced response (PSP24 PLGFR; compound at 1 μM against 2 nM LPA): 38%
effect on LPA-induced cell motility (HEY ovarian cancer cells [1]): potentiated the LPA-induced cell motility
IC50 ([2]; 96 hours drug exposure): 24.9 ± 4.1 µM
IC50 [3]: 31.6 ± 9 µM
IC50 [4]: 4.9 ± 2.6 µM

melting point: 59 to 62 °C
Compound: CCCCCCCCCCCCCCNC(=O)C(CO)NC(=O)OC(C)(C)C (stereo not shown) [Compound 27, tert-Butyl N-[1-(hydroxymethyl)-2-oxo-2-(tetradecylamino)ethyl]carbamate]
IC50 [2, 6]: 19.7 ± 6 µM
IC50 [3]: > 50 µM
IC50 ([4]; Homo sapiens, LNCaP): 10.9 ± 2.7 µM

Compound: CCCCCCCCCCCCCCNC(=O)C(N)CO.O=C(O)C(F)(F)F (stereo not shown) [Compound 36, N-1-tetradecyl-2-amino-3-hydroxypropanamide trifluoroacetate]
inhibition of LPA-induced chloride currents (PSP24 PLGFR): best inhibitor among the non-phosphorylated derivatives
melting point: 168 to 171 °C

melting point: 33 to 35 °C
Compound: CCCCCCCCCCCCCCNC(=O)C(COP(=O)(OCc1ccccc1)OCc1ccccc1)NC(=O)OC(C)(C)C (stereo not shown) [Compound 51, tert-Butyl N-[1-{([di(benzyloxy)phosphoryl]oxy)methyl}-2-oxo-2-(tetradecylamino)ethyl]carbamate]
IC50 [2, 6]: 8.1 ± 1.3 µM
IC50 [3]: 25.4 ± 3.6 µM
IC50 ([4]; Homo sapiens, LNCaP): 19.9 ± 6.4 µM

effect on LPA response when applied in combination with LPA (PSP24 PLGFR; applied in combination with LPA): enhanced the LPA response
response elicited by compound alone at 2 μM (PSP24 PLGFR; compound alone, 2 μM): did not elicit a response
response elicited by compound alone at 10 μM (PSP24 PLGFR; compound alone, 10 μM): able to elicit a response on its own
Compound: CCCCCCCCCCCCCCNC(=O)C(COP(=O)(O)O)NC(C)=O (stereo not shown) [Compound 56a, 2-(Acetylamino)-3-oxo-3-(tetradecylamino) propyl dihydrogen phosphate]
effect on LPA-induced cell motility (HEY ovarian cancer cells [1]): potentiated the LPA-induced cell motility
IC50 ([2]; 96 hours drug exposure): 0.7 ± 0.1 µM
IC50 [4]: 30.3 ± 7.9 µM

effect on LPA response after intracellular microinjection (PSP24 PLGFR; 5 μM microinjected inside the cell, then extracellular LPA (10 nM)): failed to inhibit the LPA response
reversibility of inhibition of LPA-induced chloride currents (PSP24 PLGFR; after washing the oocyte): reversible
effect on the LPA response at 5 μM (PSP24 PLGFR; compound at 5 μM): completely abolished the effect of LPA
Compound: CCCCCCCCCCCCCCCCCCOCC(COP(=O)(O)O)OP(=O)(O)O (stereo not shown) [Compound 66, 1,2-(3-Octadecyloxypropane)-bis(dihydrogen phosphate)]
inhibition of LPA-induced chloride currents (PSP24 PLGFR): inhibitors of LPA-induced chloride current
inhibition at 1 µM (HEY ovarian cancer cells [1]): ~70%
IC50 [2, 6]: > 10 µM
IC50 [3]: > 10 µM
IC50 ([4]; Homo sapiens, LNCaP): 3.1 ± 3.2 µM

inhibitory effect on LPA-elicited Ca2+ response (human Edg-2): no longer had an inhibitory effect
effect on LPA-elicited Ca2+ responses (human Edg-7): no longer inhibitors of Edg-7
Compound: CCCCCCCC(=O)OC[C@H](COP(=O)(O)OP(=O)(O)O)OC(=O)CCCCCCC [DGPP 18:1, diacylglycerol pyrophosphate]
effect on LPA-elicited Ca2+ response (HEY ovarian cancer cells [5]): had no effect
effect on LPA-induced proliferation (NIH3T3 cells): Neither DGPP 18:1, nor long- and short-chain PA and DAG had an effect

Ca2+ response, % of control (human Edg-2): 19 % of control
Ca2+ responses, % of control (human Edg-4): 162 % of control
inhibition of the Ca2+ responses (human Edg-7): 56%
Compound: Phosphatidic acid [PA 8:0]
inhibition of LPA-induced chloride currents (PSP24 PLGFR): effective at inhibiting the LPA-elicited responses
LPA-elicited Ca2+ response, % of control (HEY ovarian cancer cells [5]): 6 % of control
effect on LPA-induced proliferation (NIH3T3 cells): had no significant inhibition

decrease of the Ca2+ response (human Edg-2): 18%
Ca2+ responses, % of control (human Edg-4): 137 % of control
effect on LPA-elicited Ca2+ responses (human Edg-7): no longer inhibitors of Edg-7
Compound: Phosphatidic acid [PA 18:1]
effect on LPA-elicited Ca2+ response (HEY ovarian cancer cells [5]): had no effect
